{"source": "paper PMC9794608", "about": "(Frontiers in Veterinary Science, 2022)", "key": {"[1]": {"test_system": "laboratory beagle dogs", "assay": "Sapanisertib escalating oral dose tolerability assessment", "type": "in vivo", "procedure": "Determining a 0.1 mg/kg sapanisertib dosage for repeat dose studies was based upon extrapolation of previous studies in mice ([13], [20]), leading to initial evaluation of escalating individual oral doses of 0.1, 0.5, 0.65, and 0.8 mg/kg in one male (M), and one female (F) dog with a ≥3-day washout period between doses.\nThe initial efforts with sapanisertib focused on dose selection for ultimate testing in combination with orally administered trametinib dimethyl sulfoxide (trametinib) in nontumor-bearing laboratory beagle dogs. […] Sapanisertib dose escalation consisted of increased individual doses beginning with 0.10 mg/kg sapanisertib followed by a washout period of at least 3 days, and up to 7 days, between doses (Figure 2). Dogs lost body weight when dosed with ≥0.5 mg/kg sapanisertib. By day 23, the male dog had lost approximately 19% of initial body weight, while the female dog lost 7% body weight, and sapanisertib exposure was discontinued (Figure 2A). There was a trend toward recovery of modest amounts of body weight in these two dogs with the passage of sufficient time, post dose.\nFigure 2 Sapanisertib escalating oral dose tolerability assessment in dogs. […] (A) Body weight (b.w.) changes with respect to time of first dose, in response to dosing as indicated. (B) Sapanisertib impact on select clinical pathology parameters for the testing days shown on x axis. Values on the y axis represent pre-treatment samples (0 days). Yellow-shaded area indicates reference range of values for normal healthy beagle dogs (Charles River Labs). Serum enzymes: ALT, alanine aminotransferase; AST, aspartate aminotransferase; ALP, alkaline phosphatase."}, "[2]": {"test_system": "laboratory beagle dogs", "assay": "Repeat dose tolerability: clinical observations, hematology, serum chemistry, coagulation, urinalysis", "type": "in vivo", "procedure": "Laboratory Beagle dogs (Charles River Labs, Mattawan, MI) served as surrogates in testing compounds proposed for application in canine clinical cancer care. The animals were at least six months old and weighed 6.4–8.8 kg at the initiation of study. They had routine veterinary care and had not been used in any previous studies. The study was conducted in AAALAC-accredited animal facilities [Charles River Laboratories, Inc., Mattawan, MI; NIH Office of Laboratory Animal Welfare Assurance approval (https://olaw.nih.gov/assured/app/index.html)], under review, monitoring, and approval of the facility's Institutional Animal Care and Use Committee according to U.S. Public Health Service national guidelines and regulations for the care and use of laboratory animals. The study was not designed to incorporate Good Laboratory Practices (GLP) regulatory criteria. Animals on study were monitored daily or more frequently and body weights were recorded, while periodic specimens were obtained for laboratory analyses. Clinical pathology analyses were included for hematology, serum chemistry, coagulation, urinalysis, and chemical bioanalysis was accomplished for pharmacokinetics (PK) (Table 1, repeat dose study) (Charles River Laboratories, Mattawan, MI).\nSix male and six female beagle dogs were enrolled in a parallel, three-arm, fixed, repeat oral-dose study. […] All dogs were dosed on study day 1 to obtain single dose PK samples, and then dosed serially days 4–20. Dogs were fasted overnight prior to dosing and fed ad libitum 2 h (hrs) following dose administration.\nOn days 10 and 15, a 2-h post-dose sample was collected. […] Treatment schedule and clinical pathology specimen sampling intervals are outlined in Table 1. […]\nSampling for hematology, serum chemistry, coagulation and urinalysis was conducted to facilitate monitoring treatment effects over various time points, and values obtained were compared to pre-treatment measurements for each subject (Table 1)."}, "[3]": {"test_system": "mice", "set-up": "method as in PMID 32943547", "conditions": "cited from earlier work"}, "[4]": {"conditions": "by day 23, escalating oral doses 0.1, 0.5, 0.65, 0.8 mg/kg"}, "[5]": {"conditions": "≥ 0.5 mg/kg, both sexes, as low as"}}, "data": [{"smiles": "CC(C)n1nc(-c2ccc3oc(N)nc3c2)c2c(N)ncnc21", "note": "[Sapanisertib]", "values": [{"measurement": "Serum chloride, times the pre-study value", "setting": "[1]; 0.8 mg/kg, male", "result": 0.89, "unit": "x"}, {"measurement": "Serum sodium, times the pre-study value", "setting": "[1]; 0.8 mg/kg, male", "result": 0.98, "unit": "x"}, {"measurement": "Loss of body weight, female dog", "setting": "[1]; [4]", "result": 7, "unit": "%"}, {"measurement": "Loss of initial body weight, male dog", "setting": "[1]; [4]", "result": "approximately 19%"}, {"measurement": "Dose at which dogs lost body weight", "setting": "[1]; individual oral doses, 1 male and 1 female", "result": "≥ 0.5", "unit": "mg/kg"}, {"measurement": "Red blood cell reticulocyte counts", "setting": "[1]; ≥ 0.5 mg/kg, both sexes", "result": "moderate to marked decreases"}, {"measurement": "Serum cholesterol concentrations", "setting": "[1]; ≥ 0.5 mg/kg, both sexes", "result": "minimal to mild increases"}, {"measurement": "Alanine aminotransferase (ALT), times the pre-study value", "setting": "[1]; [5]", "result": "≥ 0.41", "unit": "x"}, {"measurement": "Aspartate aminotransferase (AST), times the pre-study value", "setting": "[1]; [5]", "result": "≥ 0.68", "unit": "x"}, {"measurement": "Serum alkaline phosphatase (ALP), times the pre-study value", "setting": "[1]; [5]", "result": "≥ 0.36", "unit": "x"}, {"measurement": "Serum ALT, times pre-study", "setting": "[2]; Day 20, one female dog (23502), considered unlikely to be inhibitor related", "result": 2.10, "unit": "x"}, {"measurement": "Dogs with minimal to marked increases in urine protein concentration", "setting": "[2]; Day 25, greater than pre-study values, 4 dogs per group", "result": "three of four"}, {"measurement": "Urine protein concentration, highest value (up to)", "setting": "[2]; Day 25, semi-quantitatively by urine dipstick", "result": "≥ 1,000 mg/dL"}, {"measurement": "Urine glucose (up to)", "setting": "[2]; Day 25, semi-quantitatively by urine dipstick, individuals of both sexes", "result": "up to 250 mg/dL"}, {"measurement": "Urine pH (up to)", "setting": "[2]; Day 25, Group 2 males and both sexes in Group 3", "result": "≥ 9.0", "unit": "pH"}, {"measurement": "Activated partial thromboplastin time (APTT) prolonged, times pretreatment (up to)", "setting": "[2]; Days 6, 11, 15, 22, and/or 25, individual dogs, within normal reference range", "result": "up to 1.21 x"}, {"measurement": "Serum phosphorus concentrations, times pre-study (as low as)", "setting": "[2]; Days 7 and 20, both sexes in all groups", "result": "≥ 0.74", "unit": "x"}, {"measurement": "Cholesterol concentrations, times pre-study (up to)", "setting": "[2]; Days 7 and 20, both sexes in Group 2 and males in Group 3", "result": "up to 1.50 x"}, {"measurement": "Group mean APTT versus dogs given trametinib alone", "setting": "[2]; at 11 days and thereafter, p < 0.05", "result": "significantly different"}, {"measurement": "Prothrombin time (PT) assays", "setting": "[2]; compared to pretreatment samples", "result": "No analogous effect"}, {"measurement": "Blood neutrophils, times individual pre-study values", "setting": "[2]; one male (23002) and one female (23501), Group 2, days 20 and 25, up to", "result": "up to 1.95 x"}, {"measurement": "Individual animal fibrinogen concentration, times pretreatment (up to)", "setting": "[2]; various time points, most pronounced in Group 3", "result": "up to 2.61 x"}, {"measurement": "Kidney findings in mice, every other day dosing", "setting": "[3]; mice, […] sapanisertib every other day", "result": "did not exhibit substantive AKI"}, {"measurement": "Kidney findings in mice, daily dosing", "setting": "[3]; some mice given […] sapanisertib daily", "result": "acute kidney injury (AKI) with moderate histopathological cortical tubular epithelial degeneration and necrosis"}]}]}
